Where a SMILES comes first, the peptide text is derived from it. Bridges are numbered along the chain shown (N, C = ends). Triazole bridges read from a SMILES are 1,4-linked. [ ]: non-standard residue; d: D form. The star is where a group is joined. Benzoyl(4-guanidino) = N=C(N)Nc1ccc(C(=O)*)cc1; Aha = [N-]=[N+]=NCC[C@H](N)C(=O)O; β3hV = CC(C)[C@H](N)CC(=O)O; Nle = CCCC[C@H](N)C(=O)O; Pra = C#CC[C@H](N)C(=O)O
Key:
[1] = biological target: T1, human MCH-R1 (Homo sapiens, UniProt Q99705); experiment: Binding displacement of [125I]-[Phe13,Tyr19]-MCH at membranes expressing human MCH-R1
T1 construct: expressed in transfected cells
Protocol: Stable cell lines were obligatory for all receptor programs. We cloned the human receptor and established the cell line as previously described. In brief, HEK293 (HEK) cells were grown in Dulbecco’s Modified Eagle medium (DMEM) supplemented with 10% fetal calf serum, 2 mM glutamine, 100 IU/mL penicillin and […] streptomycin. They were seeded at 5 × 10^6 cells in T75 cm^2 culture flasks. One day later, they were transfected with […] of the pcDNA3.1 (Invitrogen, Groningen, The Netherlands) containing the human MCH-R1 using lipofectamine (Life Technologies, Cergy Pontoise, France), as previously described. One day later, cells were trypsinized, resuspended in a complete DMEM medium containing […] of geneticin and seeded at different dilutions in 96-well plates which were kept for 2 to 3 weeks in a humidified CO2 incubator. At the end of the selection period, isolated clones were picked up, amplified, and further characterized by cyclic AMP experiments. For each cell line, one positive clone was subcloned before being used for all of the cyclic AMP, [^35S]-GTPγS and receptor binding experiments necessary to characterize them. The stable HEK293 cell line expressing the human MCH-R1 was HEK-hMCH-R1.
Membrane preparations were classically made as previously described. In brief, the HEK-hMCH-R cell line was grown to confluency, harvested in PBS buffer containing 2 mM EDTA and centrifuged at 10,000× g for 5 min (4°C). The resulting pellet was suspended in 20 mM Hepes buffer (pH 7.5), containing 5 mM EGTA and homogenized using a Kinematica polytron. The homogenate was then centrifuged (95,000× g, 30 min, 4 °C) and the resulting pellet was suspended in 50 mM HEPES buffer (pH 7.5), containing 10 mM MgCl2 and 2 mM EGTA. Aliquots of membrane preparations were stored at −80 °C until use. Binding has been described in numerous publications and the test was based on Mac Donald et al.’s description. […] Nonspecific binding is determined in the presence of 0.1 μM MCH. […] The filters are dried and then counted for radioactivity in a scintillation counter (Topcount, Packard) using a scintillation cocktail (Microscint 0, Packard). The results are expressed as percentage inhibition of the control radioligand specific binding. The standard reference compound is MCH, which was tested in each experiment at 8 concentrations to obtain a competition curve from which its IC50 is calculated. The high level of assay robustness and reproducibility of each control monitored over several decades (internal data base, Eurofins) and included in every assay ensure results’ reliability even when performed only twice. […]

[2] = biological target: T1, human MCH-R1; experiment: MCH-induced cytosolic Ca2+ ion mobilization, antagonist effect; format: cell-based
Protocol: The functional assay was run onto cells expressing the hMCH-R1 receptor, as described in Wang et al.. In brief, the cells are suspended in DMEM buffer (Invitrogen), then distributed in microplates at a density of 4.104 cells/well. The fluorescent probe (Fluo4 Direct, Invitrogen) mixed with probenecid in Hanks’ Balanced Salt solution (HBSS) (Invitrogen) complemented with 20 mM HEPES (Invitrogen) (pH 7.4) is then added into each well and equilibrated with the cells for 60 min at 37 °C, then 15 min at 22 °C. Then, the assay plates are positioned in a microplate reader (CellLux, PerkinElmer) which is used for the addition of the test compound, reference agonist or HBSS buffer (basal control), and the measurements of changes in fluorescence intensity, which varies proportionally to the free cytosolic Ca^2+ ion concentration. For stimulated control measurements, MCH at 300 nM is added in separate assay wells. The results are expressed as a percentage of the control response to 300 nM MCH. The standard reference agonist is MCH, which is tested in each experiment at several concentrations to generate a concentration-response curve from which its EC50 value is calculated. For the antagonist effect, the results are expressed as a percentage inhibition of the control response to 30 nM MCH, which was added to all tested wells and controls 5 min after the candidate products.

T1 sequence (Q99705 whole entry): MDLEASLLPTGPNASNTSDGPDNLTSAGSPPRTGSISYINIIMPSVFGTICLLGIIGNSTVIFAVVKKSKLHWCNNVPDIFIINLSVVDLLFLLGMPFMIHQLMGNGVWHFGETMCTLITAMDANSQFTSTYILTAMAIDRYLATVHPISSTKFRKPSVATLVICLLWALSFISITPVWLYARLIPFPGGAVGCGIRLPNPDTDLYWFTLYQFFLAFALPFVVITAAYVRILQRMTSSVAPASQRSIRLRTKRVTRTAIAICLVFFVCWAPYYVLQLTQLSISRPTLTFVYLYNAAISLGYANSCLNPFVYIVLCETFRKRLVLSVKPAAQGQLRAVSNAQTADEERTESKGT

With CCCC[C@@H]1NC(=O)[C@@H](NC(=O)c2ccc(NC(=N)N)cc2)CCn2cc(nn2)C[C@@H](C(=O)N[C@@H](Cc2c[nH]c3ccccc23)C(=O)O)NC(=O)[C@@H]2CCCN2C(=O)[C@H](CCCNC(=N)N)NC(=O)C[C@H](C(C)C)NC(=O)[C@H](CCCNC(=N)N)NC(=O)[C@H](CC(C)C)NC1=O [GPS18169] ({Benzoyl(4-guanidino)}-[Aha][Nle]LR[β3hV]RP[Pra]W-OH; triazole 1-8) the “affinity at the MCH-R1 receptor (in words)” value [1] was “low nanomolar range”, the “antagonistic functionality (in words)” value [2] was “high picomolar range” and the Ki ([2]; antagonism of MCH-induced cytosolic Ca2+ mobilization, read-out: Ki (functionality, antagonism at MCH-R1)) was 28 pM.

Source: article PMC7957705 (Molecules, 2021)
